Holding throughout (type): cell-based
The test system of one experiment is Interleukin-6 (IL-6). Briefly: IL-6 production by human monocytes/macrophages stimulated by CRP/Oxid. LDL complex (ELISA). How it is done: (§1) Experiments were conducted to compare the efficacy of two tetracycline compounds, doxycycline and CMT-3, on reducing the production of inflammatory mediators, TNF-α, IL-6 and MCP-1 produced by monocytes/macrophages. Doxycycline is a well known tetracycline antibiotic. CMT-3 is a non-antibacterial 4-dedimethylamino derivative of sancycline. See above. The experiments utilized a cell culture stimulated by biologic factors that cause inflammation, such as the inflammation seen in, for example, coronary and cerebro-vascular disease. Units of human blood were obtained and peripheral blood monocytes were separated by Ficoll-Hypaque gradient centrifugation. Viable human monocytes/macrophages were incubated in cell culture under standard sterile conditions on plastic in RPMI media at 37° C. for 18 hours. The monocytes/macrophages were incubated under the following experimental conditions: • (i) cells alone; • (ii) cells stimulated by c-reactive protein (CRP)/Oxidized LDL cholesterol complex (CRP/Oxid. LDL complex), no tetracycline present; • (iii) cells stimulated by CRP/Oxid. LDL complex with doxycycline at concentrations of 0.7 μg/ml, 5.0 μg/ml and 10.0 μg/ml; and. • (iv) cells stimulated by CRP/Oxid. LDL complex with CMT-3 at concentrations of 0.5 μg/ml, 1.5 μg/ml and 5.0 μg/ml. CRP/Oxid. LDL complex stimulates monocytes/macrophages to secrete excessive levels of cytokines (e.g. IL-1, IL-6, TNF-α, and MCP-1). Excessive levels of cytokines result in the rupture of atheroscleromatus plaques lining coronary and cerebral arteries causing thrombosis, heart attack and stroke. At the end of an 18 hour incubation, the conditioned media were collected and analyzed by ELISA for inflammatory mediators IL-6, TNF-α and MCP-1. The results are described in examples 1-3.
On the technique in general: In an ELISA, binding on a coated surface is turned into a signal by an enzyme label.

Experiment [1] concerns Macrophage Chemotactic Protein-1 (MCP-1). The experiment can be described thus: MCP-1 production by human monocytes/macrophages stimulated by CRP/Oxid. LDL complex (ELISA). How it is done:
as §1

Experiment [2] deals with Tumor Necrosis Factor-α (TNF-α). The experiment can be described thus: TNF-α production by human monocytes/macrophages stimulated by CRP/Oxid. LDL complex (ELISA). How it is done:
as §1

[3] abbreviates: all three concentrations tested (0.5, 1.5 and 5.0 μg/ml).
Setting [4] is: highest concentration, 5.0 μg/ml.

In the case of `NC(=O)C1=C(O)C[C@@H]2C[C@@H]3Cc4cccc(O)c4C(=O)C3=C(O)[C@]2(O)C1=O` [CMT-3, 6-demethyl-6-deoxy-4-dedimethylaminotetracycline], the “IL-6 production at 1.5 μg/ml higher than at 0.5 μg/ml” value with Interleukin-6 (IL-6) (1.5 μg/ml versus 0.5 μg/ml) turned out to be 43%. Besides, the “effect on IL-6 production” value in the experiment with Interleukin-6 (IL-6) (setting [3]) is given as “reduced IL-6 production”. Besides, the “effectiveness in reducing IL-6 among concentrations tested” value in the experiment with Interleukin-6 (IL-6) (setting [4]) is “most effective”. Also, the “MCP-1 production at 1.5 μg/ml higher than at 0.5 μg/ml” value in experiment [1] (1.5 μg/ml versus 0.5 μg/ml) stood at 16%. Moreover, the “effectiveness in reducing MCP-1 among concentrations tested” value in experiment [1] (setting [4]) is reported as “most effective”. Moreover, the “TNF-α production at 1.5 μg/ml higher than at 0.5 μg/ml” value in experiment [2] (1.5 μg/ml versus 0.5 μg/ml) was “about 50%”. In experiment [2] (setting [3]), the “effect on TNF-α production” value is recorded as “reduced TNF-α production”. In experiment [2] (setting [4]), the “effectiveness in reducing TNF-α among concentrations tested” value was “most effective”.

As a reminder, the inhibition is the relative decrease from the control value, in per cent. As for `C[C@H]1c2cccc(O)c2C(=O)C2=C(O)[C@]3(O)C(=O)C(C(N)=O)=C(O)[C@@H](N(C)C)[C@@H]3[C@@H](O)[C@@H]21` [doxycycline, reference compound], the “inhibition of MCP-1 production” value in experiment [1] (0.5 μg/ml) and in experiment [1] (1.5 μg/ml) was “did not inhibit” throughout. In addition, the inhibition at 5 µg/mL is ~68% in experiment [1] (Homo sapiens, Macrophage, 5.0 μg/ml, read-out: inhibition of production (printed TNF-α, in MCP-1 example)) and ~37% in experiment [2] (Homo sapiens, 5.0 μg/ml, 18 hour incubation). For the same compound, in experiment [2] (10.0 μg/ml, 18 hour incubation), the “reduction of TNF-α production” value was “about 94%”. The inhibition at 0.7 µg/mL in experiment [2] (Homo sapiens, 0.7 μg/ml, 18 hour incubation) was ~14%.

The values are drawn from US20080249072A1, “Use of Low Dose Chemically Modified Tetracylines to Reduce Inflammatory Mediators” (priority 2005, published 2008).
